From ChEMBL document CHEMBL5143597, “Design and synthesis of novel spirocyclic carboxylic acids as potent and orally bioavailable DGAT1 inhibitors and their biological evaluation” (Bioorg Med Chem Lett, 2022)

Columns and labels:
[1] = Solubility of compound in PBS at pH 2 incubated for 4 hrs under shaking condition by UV absorbance based analysis; type: physicochemical
[2] = Solubility of compound in PBS at pH 9 incubated for 4 hrs under shaking condition by UV absorbance based analysis; type: physicochemical
[3] = biological target: CYP2D6 (Homo sapiens, UniProt P10635); experiment: Inhibition of recombinant human CYP2D6 at 10 uM by fluorescence plate reader analysis; type: ADME
[4] = biological target: T1, CYP1A2 (Homo sapiens, UniProt P05177); experiment: Inhibition of recombinant human CYP1A2 at 25 uM by fluorescence plate reader analysis; type: ADME
T1 sequence (P05177 whole entry): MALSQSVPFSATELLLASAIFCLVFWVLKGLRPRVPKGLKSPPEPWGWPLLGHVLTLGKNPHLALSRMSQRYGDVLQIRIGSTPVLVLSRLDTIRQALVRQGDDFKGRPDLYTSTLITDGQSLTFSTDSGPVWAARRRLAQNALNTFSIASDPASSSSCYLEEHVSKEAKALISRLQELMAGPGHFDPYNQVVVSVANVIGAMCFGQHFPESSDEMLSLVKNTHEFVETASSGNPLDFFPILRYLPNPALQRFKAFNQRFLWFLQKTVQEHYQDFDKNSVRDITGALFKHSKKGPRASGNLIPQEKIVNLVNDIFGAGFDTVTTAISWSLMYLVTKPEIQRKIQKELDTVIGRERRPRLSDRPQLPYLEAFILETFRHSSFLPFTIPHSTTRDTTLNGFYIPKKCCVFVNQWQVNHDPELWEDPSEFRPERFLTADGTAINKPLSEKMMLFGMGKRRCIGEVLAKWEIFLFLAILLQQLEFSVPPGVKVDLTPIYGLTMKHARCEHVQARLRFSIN

[5] = Solubility of compound in PBS at pH 4 incubated for 4 hrs under shaking condition by UV absorbance based analysis; type: physicochemical
[6] = biological target: CYP3A4 (Homo sapiens, UniProt P08684); experiment: Inhibition of recombinant human CYP3A4 at 25 uM by fluorescence plate reader analysis; type: ADME
[7] = Solubility of compound in PBS at pH 7.4 incubated for 4 hrs under shaking condition by UV absorbance based analysis; type: physicochemical
[8] = Drug distribution in C57BL/6 mouse adipose tissue 10 mg/kg, po and measured at 1 hrs post dose by LC-MS/MS analysis; type: ADME, organism-based; conditions: read-out: Ct
[9] = Metabolic stability in rat liver microsomes assessed as parent compound remaining at 1 uM and measured at 30 mins by LC-MS/MS analysis; type: ADME, Microsome; conditions: read-out: Stability
[10] = Clearance in C57BL/6 mouse at 3 mg/kg, iv or 10 mg/kg, po and measured up to 24 hrs by LC-MS/MS analysis; type: ADME, organism-based; conditions: in vivo
[11] = Apparent permeability across apical to basolateral side in MDCK cells at 2.5 uM for 90 mins; type: ADME, cell-based, Canis lupus familiaris; conditions: dog
[12] = Clearance in Wistar rat at 3 mg/kg, iv or 10 mg/kg, po and measured up to 24 hrs by LC-MS/MS analysis; type: ADME, organism-based; conditions: in vivo
[13] = Plasma protein binding in rat; type: ADME, cell-free; conditions: read-out: PPB
[14] = Volume of distribution at steady state in C57BL/6 mouse at 3 mg/kg, iv or 10 mg/kg, po and measured up to 24 hrs by LC-MS/MS analysis; type: ADME, organism-based; conditions: in vivo, read-out: Vdss
[15] = Drug distribution in C57BL/6 mouse skeletal muscle 10 mg/kg, po and measured at 1 hrs post dose by LC-MS/MS analysis; type: ADME, organism-based, Skeletal muscle tissue; conditions: read-out: Ct
[16] = Volume of distribution at steady state in Wistar rat at 3 mg/kg, iv or 10 mg/kg, po and measured up to 24 hrs by LC-MS/MS analysis; type: ADME, organism-based; conditions: in vivo, read-out: Vdss
[17] = Drug distribution in C57BL/6 mouse liver 10 mg/kg, po and measured at 8 hrs post dose by LC-MS/MS analysis; type: ADME, organism-based; conditions: read-out: Ct
[18] = Metabolic stability in mouse liver microsomes assessed as parent compound remaining at 1 uM and measured at 30 mins by LC-MS/MS analysis; type: ADME, Microsome; conditions: read-out: Stability
[19] = Drug distribution in C57BL/6 mouse skeletal muscle 10 mg/kg, po and measured at 2 hrs post dose by LC-MS/MS analysis; type: ADME, organism-based, Skeletal muscle tissue; conditions: read-out: Ct
[20] = Drug distribution in C57BL/6 mouse plasma 10 mg/kg, po and measured at 1 hrs post dose by LC-MS/MS analysis; type: ADME, organism-based
[21] = Drug distribution in C57BL/6 mouse brain 10 mg/kg, po and measured at 1 hrs post dose by LC-MS/MS analysis; type: ADME, organism-based; conditions: read-out: Ct
[22] = Tmax in Wistar rat at 3 mg/kg, iv or 10 mg/kg, po and measured up to 24 hrs by LC-MS/MS analysis; type: ADME, organism-based; conditions: in vivo
[23] = Drug distribution in C57BL/6 mouse liver 10 mg/kg, po and measured at 1 hrs post dose by LC-MS/MS analysis; type: ADME, organism-based; conditions: read-out: Ct
[24] = Metabolic stability in human liver microsomes assessed as parent compound remaining at 1 uM and measured at 30 mins by LC-MS/MS analysis; type: ADME, Microsome; conditions: read-out: Stability
[25] = Cmax in C57BL/6 mouse at 3 mg/kg, iv or 10 mg/kg, po and measured up to 24 hrs by LC-MS/MS analysis; type: ADME, organism-based; parameters: dose 3 mg/kg, time < 24 hrs, route iv; conditions: in vivo
[26] = Oral bioavailability in Wistar rat at 10 mg/kg or 3 mg/kg, iv and measured up to 24 hrs by LC-MS/MS analysis; type: ADME, organism-based; conditions: in vivo
[27] = Drug distribution in C57BL/6 mouse adipose tissue 10 mg/kg, po and measured at 2 hrs post dose by LC-MS/MS analysis; type: ADME, organism-based; conditions: read-out: Ct
[28] = Plasma protein binding in mouse; type: ADME, cell-free; conditions: read-out: PPB (converted)
[29] = Drug distribution in C57BL/6 mouse liver 10 mg/kg, po and measured at 2 hrs post dose by LC-MS/MS analysis; type: ADME, organism-based; conditions: read-out: Ct
[30] = Drug distribution in C57BL/6 mouse skeletal muscle 10 mg/kg, po and measured at 8 hrs post dose by LC-MS/MS analysis; type: ADME, organism-based, Skeletal muscle tissue; conditions: read-out: Ct
[31] = Cmax in Wistar rat at 3 mg/kg, iv or 10 mg/kg, po and measured up to 24 hrs by LC-MS/MS analysis; type: ADME, organism-based; parameters: dose 3 mg/kg, time < 24 hrs, route iv; conditions: in vivo
[32] = AUC in C57BL/6 mouse at 3 mg/kg, iv or 10 mg/kg, po and measured up to 24 hrs by LC-MS/MS analysis; type: ADME, organism-based; parameters: time < 24 hrs, dose 3 mg/kg, route iv; conditions: in vivo
[33] = Tmax in C57BL/6 mouse at 3 mg/kg, iv or 10 mg/kg, po and measured up to 24 hrs by LC-MS/MS analysis; type: ADME, organism-based; conditions: in vivo
[34] = Half life in Wistar rat at 3 mg/kg, iv or 10 mg/kg, po and measured up to 24 hrs by LC-MS/MS analysis; type: ADME, organism-based; conditions: in vivo
[35] = Drug distribution in C57BL/6 mouse plasma 10 mg/kg, po and measured at 2 hrs post dose by LC-MS/MS analysis; type: ADME, organism-based
[36] = Half life in C57BL/6 mouse at 3 mg/kg, iv or 10 mg/kg, po and measured up to 24 hrs by LC-MS/MS analysis; type: ADME, organism-based; conditions: in vivo
[37] = Oral bioavailability in C57BL/6 mouse 10 mg/kg or 3 mg/kg, iv and measured up to 24 hrs by LC-MS/MS analysis; type: ADME, organism-based; conditions: in vivo
[38] = AUC in Wistar rat at 3 mg/kg, iv or 10 mg/kg, po and measured up to 24 hrs by LC-MS/MS analysis; type: ADME, organism-based; parameters: dose 3 mg/kg, time < 24 hrs, route iv; conditions: in vivo
[39] = Drug distribution in C57BL/6 mouse adipose tissue 10 mg/kg, po and measured at 8 hrs post dose by LC-MS/MS analysis; type: ADME, organism-based; conditions: read-out: Ct
[40] = Drug distribution in C57BL/6 mouse plasma 10 mg/kg, po and measured at 8 hrs post dose by LC-MS/MS analysis; type: ADME, organism-based
[41] = biological target: hERG (KCNH2) (Homo sapiens, UniProt Q12809); experiment: Displacement of [3H]astemizole from human ERG expressed in HEK293 cell membrane at 10 uM for 2 hrs by Radiometric displacement assay; type: toxicity; conditions: HEK293 cell membranes that express hERG, probe [3H]astemizole
[42] = Drug distribution in C57BL/6 mouse brain 10 mg/kg, po and measured at 2 hrs post dose by LC-MS/MS analysis; type: ADME, organism-based; conditions: read-out: Ct
[43] = biological target: CYP2C9 (Homo sapiens, UniProt P11712); experiment: Inhibition of recombinant human CYP2C9 at 25 uM by fluorescence plate reader analysis; type: ADME
[44] = biological target: T2, Diacylglycerol O-acyltransferase 1 (Homo sapiens, UniProt O75907); experiment: Inhibition of human DGAT1 in serum starved HEK293 cells assessed as inhibition of triglyceride synthesis incubated for 20 mins followed by 13C-addition of 13C-oleic acid pre-complexed with BSA for 120 mins by LC-MS-based mass spectrophotometric analysis; type: cell-based
T2 sequence (O75907 whole entry): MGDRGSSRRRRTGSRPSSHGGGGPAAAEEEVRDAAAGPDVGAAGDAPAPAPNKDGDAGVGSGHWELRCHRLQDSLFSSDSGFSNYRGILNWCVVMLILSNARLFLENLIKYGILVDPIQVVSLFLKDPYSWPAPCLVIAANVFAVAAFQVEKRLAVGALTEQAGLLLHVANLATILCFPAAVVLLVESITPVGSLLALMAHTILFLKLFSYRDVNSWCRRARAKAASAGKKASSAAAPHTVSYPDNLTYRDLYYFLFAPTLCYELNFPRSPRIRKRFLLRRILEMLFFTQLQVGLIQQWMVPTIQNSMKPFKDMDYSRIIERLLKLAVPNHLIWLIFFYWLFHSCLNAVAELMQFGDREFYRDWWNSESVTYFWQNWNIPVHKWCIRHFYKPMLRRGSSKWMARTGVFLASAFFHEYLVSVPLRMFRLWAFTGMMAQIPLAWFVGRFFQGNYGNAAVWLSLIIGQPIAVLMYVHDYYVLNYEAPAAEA

CYP3A4, sequence (P08684 whole entry): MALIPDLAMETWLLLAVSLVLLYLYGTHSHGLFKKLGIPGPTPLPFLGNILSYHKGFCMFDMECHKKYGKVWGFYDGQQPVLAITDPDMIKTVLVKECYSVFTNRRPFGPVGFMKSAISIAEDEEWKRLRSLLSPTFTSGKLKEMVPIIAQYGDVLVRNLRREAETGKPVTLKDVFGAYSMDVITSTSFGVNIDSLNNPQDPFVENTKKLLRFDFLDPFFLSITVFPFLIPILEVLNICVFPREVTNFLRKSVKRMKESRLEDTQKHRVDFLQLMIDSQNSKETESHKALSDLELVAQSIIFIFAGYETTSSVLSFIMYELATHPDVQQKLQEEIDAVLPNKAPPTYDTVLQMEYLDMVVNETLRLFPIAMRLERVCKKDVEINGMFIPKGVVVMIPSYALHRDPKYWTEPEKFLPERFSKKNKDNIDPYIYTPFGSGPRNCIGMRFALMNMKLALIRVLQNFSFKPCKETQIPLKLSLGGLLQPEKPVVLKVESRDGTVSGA
hERG (KCNH2), sequence (Q12809 whole entry): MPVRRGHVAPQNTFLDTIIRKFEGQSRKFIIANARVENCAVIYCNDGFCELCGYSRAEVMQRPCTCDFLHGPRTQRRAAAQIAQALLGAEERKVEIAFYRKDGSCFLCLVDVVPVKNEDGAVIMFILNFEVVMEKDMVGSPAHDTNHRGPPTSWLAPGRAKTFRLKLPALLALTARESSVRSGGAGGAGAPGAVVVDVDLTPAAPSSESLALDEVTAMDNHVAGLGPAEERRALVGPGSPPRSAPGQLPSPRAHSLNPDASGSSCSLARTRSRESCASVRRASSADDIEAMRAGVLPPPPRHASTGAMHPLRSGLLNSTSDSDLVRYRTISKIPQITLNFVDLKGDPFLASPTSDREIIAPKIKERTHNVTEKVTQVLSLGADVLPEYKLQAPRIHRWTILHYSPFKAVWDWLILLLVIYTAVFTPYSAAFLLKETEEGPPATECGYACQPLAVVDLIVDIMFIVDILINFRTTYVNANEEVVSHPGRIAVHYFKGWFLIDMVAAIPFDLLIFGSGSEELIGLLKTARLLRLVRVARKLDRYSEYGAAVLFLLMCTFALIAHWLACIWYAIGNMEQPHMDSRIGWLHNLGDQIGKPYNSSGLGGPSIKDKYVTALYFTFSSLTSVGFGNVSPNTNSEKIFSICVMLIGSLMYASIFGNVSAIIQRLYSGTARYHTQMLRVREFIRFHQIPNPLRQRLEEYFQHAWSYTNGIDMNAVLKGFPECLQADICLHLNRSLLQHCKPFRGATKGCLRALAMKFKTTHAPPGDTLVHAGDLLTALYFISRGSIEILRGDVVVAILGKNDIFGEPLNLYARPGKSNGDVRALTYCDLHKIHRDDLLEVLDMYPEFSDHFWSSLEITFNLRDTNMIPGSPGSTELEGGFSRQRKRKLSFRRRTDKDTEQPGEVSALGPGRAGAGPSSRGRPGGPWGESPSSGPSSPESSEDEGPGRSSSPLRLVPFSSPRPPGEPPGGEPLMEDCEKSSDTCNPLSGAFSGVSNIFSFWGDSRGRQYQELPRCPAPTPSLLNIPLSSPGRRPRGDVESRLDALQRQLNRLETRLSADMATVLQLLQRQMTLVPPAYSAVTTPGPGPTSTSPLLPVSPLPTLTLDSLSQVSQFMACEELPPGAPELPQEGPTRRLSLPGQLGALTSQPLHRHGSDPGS
CYP2C9, sequence (P11712 whole entry): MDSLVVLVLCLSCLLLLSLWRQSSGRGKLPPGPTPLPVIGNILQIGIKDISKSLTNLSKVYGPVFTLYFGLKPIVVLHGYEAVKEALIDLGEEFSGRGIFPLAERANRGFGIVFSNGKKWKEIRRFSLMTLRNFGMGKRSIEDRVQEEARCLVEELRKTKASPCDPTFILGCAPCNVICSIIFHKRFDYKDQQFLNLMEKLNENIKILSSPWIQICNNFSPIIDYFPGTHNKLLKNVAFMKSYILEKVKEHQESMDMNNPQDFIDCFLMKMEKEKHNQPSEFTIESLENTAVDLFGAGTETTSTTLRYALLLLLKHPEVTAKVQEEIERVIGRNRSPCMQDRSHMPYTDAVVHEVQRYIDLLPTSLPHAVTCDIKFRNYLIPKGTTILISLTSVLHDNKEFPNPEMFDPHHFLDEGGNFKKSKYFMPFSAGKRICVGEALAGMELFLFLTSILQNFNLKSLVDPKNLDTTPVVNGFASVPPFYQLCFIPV
CYP2D6, sequence (P10635 whole entry): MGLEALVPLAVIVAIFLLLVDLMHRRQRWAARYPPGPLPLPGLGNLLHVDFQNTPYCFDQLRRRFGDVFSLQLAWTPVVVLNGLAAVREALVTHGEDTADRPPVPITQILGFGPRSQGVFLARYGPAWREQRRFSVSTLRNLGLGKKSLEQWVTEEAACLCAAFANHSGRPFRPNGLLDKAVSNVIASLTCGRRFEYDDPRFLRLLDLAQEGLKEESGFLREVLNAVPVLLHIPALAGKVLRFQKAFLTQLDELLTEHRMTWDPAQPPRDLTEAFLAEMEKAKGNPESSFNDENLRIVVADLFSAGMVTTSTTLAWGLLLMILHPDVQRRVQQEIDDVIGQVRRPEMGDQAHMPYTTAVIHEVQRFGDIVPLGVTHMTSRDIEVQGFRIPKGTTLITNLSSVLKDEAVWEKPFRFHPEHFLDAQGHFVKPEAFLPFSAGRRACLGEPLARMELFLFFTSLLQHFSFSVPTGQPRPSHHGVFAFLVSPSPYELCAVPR

O=C([O-])CC1CCC2(CC1)CCN(c1ccc(NC(=O)c3nnc(Nc4ccc(F)c(F)c4)o3)cn1)CC2.[Na+]
solubility at 4 h [1]: 8 µM | solubility at 4 h [2]: < 6 µM | inhibition at 10 µM [3]: 7% | inhibition at 25 µM [4]: 8% | solubility at 4 h [5]: < 6 µM | inhibition at 25 µM [6]: 12% | solubility at 4 h [7]: 37 µM

O=C(O)CC1CCC2(CC1)CCN(c1ccc(NC(=O)c3nnc(Nc4ccc(F)c(F)c4)o3)cn1)CC2
concentration at 1 h [8]: 160 nM | remaining at 0.5 h, 1 µM [9]: 84% | clearance [10]: 60 mL/min/kg | Papp A→B at 1.5 h, 2.5 µM [11]: 5.3 ×10⁻⁶ cm/s | clearance [12]: 3.3 mL/min/kg | fraction unbound [13]: 0.01 | Vd [14]: 13 L/kg | concentration at 1 h [15]: 100 nM | Vd [16]: 0.6 L/kg | concentration at 8 h [17]: 22200 nM | remaining at 0.5 h, 1 µM [18]: 78% | concentration at 2 h [19]: 50 nM | concentration at 1 h [20]: 1870 nM | concentration at 1 h [21]: 10 nM | Tmax [22]: 1.4 h | concentration at 1 h [23]: 39200 nM | remaining at 0.5 h, 1 µM [24]: 100% | Cmax [25]: 1000 nM | bioavailability [26]: 38% | concentration at 2 h [27]: 150 nM | fraction unbound [28]: 0.01 | concentration at 2 h [29]: 54900 nM | concentration at 8 h [30]: 10 nM | Cmax [31]: 9200 nM | AUC at 24 h [32]: 1.6 µM·h | Tmax [33]: 0.25 h | half-life [34]: 3.1 h | concentration at 2 h [35]: 1460 nM | half-life [36]: 5.7 h | bioavailability [37]: 41% | AUC at 24 h [38]: 30 µM·h | concentration at 8 h [39]: 10 nM | concentration at 8 h [40]: 60 nM | inhibition at 2 h, 10 µM [41]: 10% | concentration at 2 h [42]: 10 nM

O=C(Nc1ccc(C2CCC3(CC2)CC(C(=O)O)C3)cc1)c1nnc(Nc2ccc(F)c(F)c2)o1 (configuration not stated)
inhibition at 25 µM [4]: 18% | inhibition at 25 µM [43]: 24% | inhibition at 25 µM [6]: 16%

O=C(O)CC1CCC2(CC1)CCC(c1ccc(NC(=O)c3nnc(Nc4ccc(F)c(F)c4)o3)cc1)CC2 (stereo in doubt; 8)
IC50 [44]: 14.6 nM | remaining at 0.5 h, 1 µM [9]: 96% | fraction unbound [13]: 0.01 | remaining at 0.5 h, 1 µM [18]: 97% | remaining at 0.5 h, 1 µM [24]: 100% | fraction unbound [28]: < 0.01 | inhibition at 2 h, 10 µM [41]: 18%
